Assay results from patent publication US9856218B2, “Inhibitors of PRMT5 and methods of their use” (Ohio State Innovation Foundation, priority 2013, dated 2018).
Where two headings read alike, the source gives them in different places. Each block holds one molecule with its values, some of them ahead of it.

How the values were obtained:
JeKo cells = test: Immunofluorescence staining of methylated H4(Me2)R3 / H3(Me2)R8; format: cell-based; conditions: FIG. 2F
Description: DAPI was used to stain nuclei.
Immunofluorescence assays for screening for presence of type II PRMT epigenetic marks (H4(SMe2)R3) compared to type I mark (H4(AMe2)R3). Cell lines were incubated for 24 hours with all the 14 compounds. After 24 hours, cells were fixed, blocked and treated with mAbs specific for symmetric dimethylation and asymmetric dimethylation of histone H4R3 respectively. Alexa Fluor 488 conjugated 2nd Ab was used for the staining of histone marks (green). Draq5 was used to stain nuclei (blue).

multiple cell lines = test: Proliferation of multiple cell lines (FIG. 59); format: cell-based; conditions: FIG. 59A-E
Description: Proliferation of multiple cell lines was evaluated for CMPD 5, CMPD 7, HLCL61, HLCL-65, and HLCL-66 (FIG. 59A-E).

[1] = tested on: PRMT5 expression and phosphorylation levels in AML cells; test: PRMT5 expression and phosphorylation after FLT3 inhibition; format: cell-based; conditions: FIG. 38C
Description: Whole cell lysates were prepared by suspending cell pellets in RIPA buffer for 20 min (1% NP-40, 0.1% SDS, 150 mM NaCl, 50 mM Tris, pH 8.0), then supplemented with 1× complete EDTA free protease inhibitor (Roche) and 1× PhosStop (Roche). Lysates were separated by 4-20% SDS-PAGE and transferred to PVDF membrane (GE Healthcare, Piscataway, N.J.). Membranes were blocked with 5% milk or BSA in 1×TBS with 0.1% Tween 20 for 1 hour at room temperature with shaking. Primary antibodies for ACTIN, GAPDH and FLT3 (Santa Cruz Biotechnology, Santa Cruz Calif.), P65 (Cell signaling), PRMT5 and SP1 (Millipore), H4R3, H3R8, H3 and H4 (Abcam), were diluted 1:1000 or 1:2000 in 5% milk or BSA and incubated for 1-2 hr at room temperature. Membranes were washed using 1×TBS-T, incubated with HRP-conjugated secondary antibodies diluted in 1×TBS-T with 5% milk or BSA, washed, and developed using SuperSignal West Dura Chemiluminescent Substrate (Thermo Scientific).

[2] = tested on: Mantle cell lymphoma cell line Jeko; test: MTS anti-proliferation assay; format: cell-based
Description: MTS proliferation assays were performed according the CellTiter 96™ Aqueous Cell Proliferation Assay Technical Bulletin (Promega, Madison, Wis.). 5×10^5 cells were plated in each well of a 96-well plate at 37° C. and assayed for proliferation at 24, 48, and 72 hr. Proliferation signal at 50% of control was used as IC50 for growth.
(§1) Following the synthesis of 14 compounds, the anti-proliferation and pro-apoptotic activities of those compounds was evaluated in Mantle cell lymphoma cell line Jeko. Replicate cultures of Jeko were incubated in DMSO and the compounds for 24, 48 and 72 hours. FITC-Annexin V-PI stained flow cytometry was used to detect the apoptotic population of cells (Table 4).

[3] = molecular target: T1, recombinant human PRMT5/MEP50 enzyme (Homo sapiens, UniProt O14744); test: Epigenase PRMT methyltransferase (type II-specific) activity/inhibition assay kit; format: biochemical; conditions: 25 ng recombinant human PRMT5/MEP50 per reaction; read-out: Inhibition of PRMT5 mediated H4R3 methylation (IC50)
T1 construct: purchased BPS Bioscience
Description: The inhibition of PRMT5 mediated H4R3 methylation result was obtained with Epigenase™ PRMT methyltransferase (type II-specific) activity/inhibition assay kit. 25 ng recombinant human PRMT5/MEP50 enzyme (purchased from BPS Bioscience) was used in each reaction.

[4] = tested on: Mantle cell lymphoma cell line Jeko; test: Induction of apoptosis, FITC-Annexin V-PI flow cytometry; format: cell-based
Description: Analysis by flow cytometry. Cell viability was also measured by flow cytometry at 24 and 48 hr using annexin-V-FITC and propidium iodide (PI) according to the manufacturer's instructions (BD Biosciences).
as §1

[5] = molecular target: T2, affinity-purified hSWI/SNF associated PRMT5 (Homo sapiens, UniProt O14744); test: Histone methyltransferase assay, [3H]SAM; format: biochemical; conditions: for inhibition of PRMT5 enzyme: 10 μM, FIG. 17B; for IC50: FIG. 16, 1-40 μM compound, HeLa S3 core histones, read-out: PRMT5 methylation activity IC50
T2 construct: made in house
Description: (§2) Histone methylation was performed in the presence of DMSO, and 1-40 μM inhibitor compounds. […] After 1.5 h incubation at 30° C., reaction mixtures were spotted on Whatman P-81 filter paper, washed five times with 10 mL of […] sodium carbonate buffer (pH 9.0) to remove unincorporated [3H]SAM, and methylated peptides were detected by scintillation counting.
Type II PRMT enzymes repress gene transcription and symmetrically dimethylate H3R8 and H4R3, while type I PRMT enzymes activate gene transcription and asymmetrically dimethylate H4R3. Purified PRMT5, PRMT1, PRMT4 and PRMT7 were obtained to perform the assay.
as §2, with “HLCL-32, HLCL-10, HLCL-61 and HLCL-64.” for “inhibitor compounds.”, “After a” for “After”, “C.” for “C.,”, “[^3H]SAM,” for “[3H]SAM,”

recombinant PRMT1 = molecular target: T3, recombinant PRMT1 (Rattus norvegicus, UniProt Q63009); test: Histone methyltransferase assay, [3H]SAM; format: biochemical
T3 construct: purchased Millipore 14-474
Description: as §2
as §2, with “HLCL-32, HLCL-10, HLCL-61 and HLCL-64.” for “inhibitor compounds.”, “After a” for “After”, “C.” for “C.,”, “[^3H]SAM,” for “[3H]SAM,”

[6] = 24 hr Quick MTD test, one mouse for each dose; format: in vivo; conditions: one mouse
Description: (§3) Controlled shRNA depletion was evaluated in a murine lymphoma model (Eμ-BRD2 (Chung, J., et al. (2013) J. Biological Chemistry 288, 35534-35547)) and human xenograft model of glioblastoma (Yan, F., et al (2014) Cancer Research In Press). Referring to FIG. 62A, controlled expression of a PRMT5 shRNA (solid line) but not control shRNA (dashed line) leads to 100% survival of mice engrafted primary DLBCL tumor cells. […] The maximum tolerated dose (MTD, single dose) was identified at 50 mg/kg (see Table 11 below). A sub-toxic dose (25 mg/kg) was used to treat FcMCL mice. Control mice developed peripheral blood and lymph node tumor burden starting day 20 post-engraftment.

[7] = In vivo pharmacokinetics, plasma concentration; design: species or system Mouse; conditions: for concentration at 0.08 h / concentration at 0.17 h / concentration at 0.33 h / concentration at 0.5 h / concentration at 1 h / concentration at 2 h / concentration at 4 h / concentration at 6 h / concentration at 8 h / concentration at 24 h: mouse, in vivo, read-out: Mouse plasma concentration; for concentration at 0.5 h: 0.50 h
Source text: Pharmacokinetic data of compounds HLCL-7, HLCL-61, and HLCL-66 taken from an in vivo study is illustrated in Table 10. […]

FcMCL mice = test: FcMCL mantle cell lymphoma mouse model; format: in vivo; conditions: 25 mg/kg, IP, every other day
Description: as §3

[8] = MTD study, four mice each dose; format: in vivo
Description: as §3

[9] = incubation time not given (24, 48, 72 h tested)
[10] = IV 5 mg/kg, Tween80 formulation

T3 sequence (Q63009 whole entry): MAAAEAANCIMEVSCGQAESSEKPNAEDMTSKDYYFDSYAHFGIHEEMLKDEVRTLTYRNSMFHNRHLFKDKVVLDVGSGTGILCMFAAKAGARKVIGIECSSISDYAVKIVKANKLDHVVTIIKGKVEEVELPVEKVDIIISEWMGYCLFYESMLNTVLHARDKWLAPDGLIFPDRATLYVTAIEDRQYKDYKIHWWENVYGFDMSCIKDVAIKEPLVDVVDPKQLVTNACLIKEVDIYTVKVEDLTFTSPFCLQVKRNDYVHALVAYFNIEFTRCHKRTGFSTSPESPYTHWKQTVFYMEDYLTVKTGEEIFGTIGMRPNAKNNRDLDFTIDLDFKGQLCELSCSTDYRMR
T1 sequence (O14744 2-637 limits assumed): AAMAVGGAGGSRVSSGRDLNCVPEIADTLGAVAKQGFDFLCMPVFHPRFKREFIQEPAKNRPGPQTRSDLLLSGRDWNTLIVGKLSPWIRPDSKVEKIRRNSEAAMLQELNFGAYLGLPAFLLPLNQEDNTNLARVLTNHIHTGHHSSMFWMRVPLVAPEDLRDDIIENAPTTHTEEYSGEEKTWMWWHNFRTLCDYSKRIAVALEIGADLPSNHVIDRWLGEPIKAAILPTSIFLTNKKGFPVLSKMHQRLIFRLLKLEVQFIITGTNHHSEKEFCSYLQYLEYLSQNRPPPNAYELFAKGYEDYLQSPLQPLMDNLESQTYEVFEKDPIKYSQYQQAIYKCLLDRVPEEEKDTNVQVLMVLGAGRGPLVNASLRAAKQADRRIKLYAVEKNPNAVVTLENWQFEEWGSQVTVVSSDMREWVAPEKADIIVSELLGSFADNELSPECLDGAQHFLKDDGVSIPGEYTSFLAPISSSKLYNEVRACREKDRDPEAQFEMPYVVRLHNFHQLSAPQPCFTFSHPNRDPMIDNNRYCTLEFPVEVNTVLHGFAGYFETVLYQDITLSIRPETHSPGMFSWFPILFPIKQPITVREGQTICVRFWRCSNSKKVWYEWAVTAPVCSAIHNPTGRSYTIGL
T1 sequence (Q9BQA1 2-342 partner limits assumed): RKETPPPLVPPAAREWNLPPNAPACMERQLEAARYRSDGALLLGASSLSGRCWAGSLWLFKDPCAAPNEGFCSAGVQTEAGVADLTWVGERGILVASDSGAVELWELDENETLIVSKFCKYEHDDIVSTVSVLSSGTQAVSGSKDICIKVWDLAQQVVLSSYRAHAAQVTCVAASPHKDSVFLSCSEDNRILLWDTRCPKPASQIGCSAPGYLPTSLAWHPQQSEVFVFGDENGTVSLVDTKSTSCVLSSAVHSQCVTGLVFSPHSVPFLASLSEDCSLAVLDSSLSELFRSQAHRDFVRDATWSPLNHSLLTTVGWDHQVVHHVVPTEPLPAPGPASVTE
T2 sequence (O14744 whole entry): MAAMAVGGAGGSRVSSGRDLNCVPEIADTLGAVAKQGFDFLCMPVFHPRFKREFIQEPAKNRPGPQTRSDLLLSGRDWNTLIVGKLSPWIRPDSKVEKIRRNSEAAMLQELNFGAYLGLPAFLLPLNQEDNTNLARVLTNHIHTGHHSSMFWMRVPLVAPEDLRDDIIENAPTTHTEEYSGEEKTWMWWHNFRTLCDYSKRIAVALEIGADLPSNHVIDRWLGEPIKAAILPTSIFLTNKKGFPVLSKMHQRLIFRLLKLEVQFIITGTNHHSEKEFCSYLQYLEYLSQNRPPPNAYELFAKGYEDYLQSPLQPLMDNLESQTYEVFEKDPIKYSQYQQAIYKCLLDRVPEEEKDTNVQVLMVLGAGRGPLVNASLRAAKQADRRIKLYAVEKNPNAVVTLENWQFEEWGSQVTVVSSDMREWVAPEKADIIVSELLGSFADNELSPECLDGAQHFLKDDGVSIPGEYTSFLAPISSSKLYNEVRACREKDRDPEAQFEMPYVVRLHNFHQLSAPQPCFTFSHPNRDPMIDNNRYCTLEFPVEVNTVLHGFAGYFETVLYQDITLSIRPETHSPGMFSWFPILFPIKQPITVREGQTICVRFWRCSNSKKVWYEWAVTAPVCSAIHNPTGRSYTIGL
T2 sequence (Q9BQA1 whole entry partner): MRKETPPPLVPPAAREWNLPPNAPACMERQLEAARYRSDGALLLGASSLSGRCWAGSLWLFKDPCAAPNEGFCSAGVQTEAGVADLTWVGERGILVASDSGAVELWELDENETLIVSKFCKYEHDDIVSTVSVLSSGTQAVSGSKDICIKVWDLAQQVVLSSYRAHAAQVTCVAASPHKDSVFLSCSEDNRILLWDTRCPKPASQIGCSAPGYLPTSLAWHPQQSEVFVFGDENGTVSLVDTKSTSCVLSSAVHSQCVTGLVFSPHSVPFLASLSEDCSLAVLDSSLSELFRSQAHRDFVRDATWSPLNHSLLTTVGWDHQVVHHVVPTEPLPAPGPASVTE

Structure (SMILES): CCn1c2ccccc2c2cc(CNCc3ccccn3)ccc21 [CMP5, reference compound]
PRMT5 driven epigenetic marks (symmetrically methylated H4(Me2)R3, H3(Me2)R8) (JeKo cells): interferes with PRMT5 driven epigenetic marks
potency, proliferation of multiple cell lines (multiple cell lines): low micromolar range

Structure (SMILES): COc1ccc(C(=O)Nc2sc3c(c2C(N)=O)CCCC3)cc1OC [FLT3 inhibitor (CALBIOCHEM #343020)]
PRMT5 expression and phosphorylation levels [1]: did not change

Structure (SMILES): CS(=O)(=O)c1ccc(C(O)C(O)Cn2c3ccccc3c3ccccc32)cc1 (centres unmarked) [HLCL-17&20]
IC50 [2, 9]: > 50 µM
IC50 [3]: > 50 µM

Structure (SMILES): CS(=O)(=O)c1ccc(NCCn2c3ccccc3c3ccccc32)cc1 [HLCL-23]
IC50 [2, 9]: > 50 µM
IC50 [3]: > 50 µM

Structure (SMILES): CS(=O)(=O)c1ccc(/C=C/Cn2c3ccccc3c3ccccc32)cc1 [HLCL-63]
IC50 [2, 9]: > 50 µM
IC50 [3]: > 50 µM

Structure (SMILES): CS(=O)(=O)c1ccc(/C=C\Cn2c3ccccc3c3ccccc32)cc1 [HLCL-64]
IC50 [2, 9]: > 50 µM
IC50 [3]: > 50 µM
inhibition of PRMT5 enzyme [5]: the only enzyme that is affected is PRMT5
IC50 [5]: ~5 µM
inhibition of PRMT1 enzyme (recombinant PRMT1; 10 μM, FIG. 17B): this non-specific activity is lost
inhibition of PRMT1 enzyme (recombinant PRMT1; 20 μM and above, FIG. 17A): non-specific inhibition

Structure (SMILES): CCn1c2ccc(Br)cc2c2cc(CNCc3ccccc3OC)ccc21 [HLCL-65]
survival after dosing ([6]; IP-50 mg/kg): Alive 24 hr after
clinical signs after dosing ([6]; IP-100 mg/kg, after 24 hr): paralyzed
clinical signs after dosing ([6]; IP-200 mg/kg): Paralyzed after dosing,
survival after dosing ([6]; IP-200 mg/kg): dead within 1 hr
survival after dosing ([6]; IV-2.5 mg/kg): Dead instantly after
survival after dosing ([6]; IV-5 mg/kg): Alive 24 hr after
survival after dosing ([6]; IV-10 mg/kg): Dead instantly after
survival after dosing ([6]; IV-20 mg/kg): Dead instantly after
potency, proliferation of multiple cell lines (multiple cell lines): low micromolar range
IC50 ([2]; 24 h incubation): 9 µM
IC50 ([2]; 48 h incubation): 8 µM
IC50 ([2]; 72 h incubation): 6 µM
peak plasma concentrations ([7]; IV and IP routes at a dose of 25 mg/kg, FIG. 62B): 8 to 20 µM
concentration at 0.08 h ([7]; IP 25 mg/kg, DMSO solution): 6240 nM
concentration at 0.17 h ([7]; IP 25 mg/kg, DMSO solution): 6270 nM
concentration at 0.33 h ([7]; IP 25 mg/kg, DMSO solution): 5280 nM
concentration at 0.5 h ([7]; IP 25 mg/kg, DMSO solution): 1660 nM
concentration at 1 h ([7]; IP 25 mg/kg, DMSO solution): 1590 nM
concentration at 2 h ([7]; IP 25 mg/kg, DMSO solution): 8450 nM
concentration at 4 h ([7]; IP 25 mg/kg, DMSO solution): 4510 nM
concentration at 6 h ([7]; IP 25 mg/kg, DMSO solution): 5480 nM
concentration at 8 h ([7]; IP 25 mg/kg, DMSO solution): 3710 nM
concentration at 24 h ([7]; IP 25 mg/kg, DMSO solution): 480 nM
concentration at 0.08 h [7, 10]: 2940 nM
concentration at 0.17 h [7, 10]: 2050 nM
concentration at 0.33 h [7, 10]: 2940 nM
concentration at 0.5 h [7, 10]: 2390 nM
concentration at 1 h [7, 10]: 1890 nM
concentration at 2 h [7, 10]: 1930 nM
concentration at 4 h [7, 10]: 1530 nM
concentration at 6 h [7, 10]: 720 nM
concentration at 8 h [7, 10]: 513 nM
concentration at 24 h [7, 10]: 29.6 nM
EC50 ([4]; 24 h): 4 µM
EC50 ([4]; 48 h): 5 µM
IC50 [3]: 30 µM
tumor burden in FcMCL mice (FcMCL mice; lymph node versus peripheral blood): controlling development of lymph node tumor burden but not peripheral blood FcMCL tumor burden
survival of FcMCL mice (FcMCL mice; preliminary experiment): improved survival
survival 24 hr after dosing ([8]; IP-5 mg/kg, four mice): Alive 24 hr after
condition within 1 hr after dosing (alive but slow moving) ([8]; IP-50 mg/kg, four mice): Alive within 1 hr after
survival 24 hr after dosing ([8]; IP-50 mg/kg, four mice): moving. Alive 24 hr
MTD at 24 h ([8]; mouse, in vivo, single dose, mice, read-out: maximum tolerated dose (MTD, single dose)): 50 mg/kg

Structure (SMILES): CO[C@@H]1[C@H](N(C)C(=O)c2ccccc2)C[C@H]2O[C@]1(C)n1c3ccccc3c3c4c(c5c6ccccc6n2c5c31)C(=O)NC4 [PKC412]
PRMT5 expression and phosphorylation levels [1]: did not change

Second part, led by results:

IC50 [2, 9]: > 50 µM
IC50 [3]: > 50 µM
Structure (SMILES): CS(=O)(=O)c1ccc(Cn2c3ccccc3c3ccccc32)cc1 [HLCL-1]

IC50 [2, 9]: > 50 µM
IC50 [3]: > 50 µM
Structure (SMILES): CCn1c2ccccc2c2cc(NC(=S)Nc3ccc(S(C)(=O)=O)cc3)ccc21 [HLCL-6]

IC50 [2, 9]: > 50 µM
IC50 [3]: > 50 µM
Structure (SMILES): CCn1c2ccccc2c2cc(CNc3ccc(S(C)(=O)=O)cc3)ccc21 [HLCL-9]

IC50 ([2]; 24 h incubation): 84 µM
IC50 ([2]; 48 h incubation): 47 µM
IC50 ([2]; 72 h incubation): 60 µM
EC50 ([4]; 24 h): 40 µM
EC50 ([4]; 48 h): 35 µM
IC50 [3]: > 50 µM
IC50 [5]: ~5 µM
inhibition of PRMT1 enzyme (recombinant PRMT1; 10 μM, FIG. 17B): this non-specific activity is lost
inhibition of PRMT1 enzyme (recombinant PRMT1; 20 μM and above, FIG. 17A): non-specific inhibition
Structure (SMILES): CCn1c2ccccc2c2cc(CNCc3ccc(S(C)(=O)=O)cc3)ccc21 [HLCL-10]
inhibition of PRMT5 enzyme [5]: the only enzyme that is affected is PRMT5

IC50 [2, 9]: > 50 µM
IC50 [3]: > 50 µM
Structure (SMILES): CCn1c2ccccc2c2cc(/C=N/Nc3ccc(S(C)(=O)=O)cc3)ccc21 [HLCL-12]

IC50 ([2]; 24 h incubation): 51 µM
IC50 ([2]; 48 h incubation): 29 µM
IC50 ([2]; 72 h incubation): 29 µM
EC50 ([4]; 24 h): 30 µM
EC50 ([4]; 48 h): 20 µM
IC50 [3]: > 50 µM
IC50 [5]: ~5 µM
inhibition of PRMT1 enzyme (recombinant PRMT1; 10 μM, FIG. 17B): this non-specific activity is lost
inhibition of PRMT1 enzyme (recombinant PRMT1; 20 μM and above, FIG. 17A): non-specific inhibition
Structure (SMILES): CCn1c2ccccc2c2cc(CNc3ccc(S(N)(=O)=O)cc3)ccc21 [HLCL-32]
inhibition of PRMT5 enzyme [5]: the only enzyme that is affected is PRMT5
